Measured values reported in ChEMBL document CHEMBL5727219, “Kinase inhibitors and method of treating cancer” (2019).

Assay: Inhibition Assay: PLK3 inhibition was determined using the Z-Lyte assay kit from Invitrogen (cat #PV3802). The assay was performed using the recommended manufacturer's instructions with 100 μM ATP and 21 nM PLK3 (Invitrogen cat #PV3812). The % inhibition values were determined according to the manufacturer's directions and IC50 values were obtained using a non-linear 4 point logistic curve fit (XLfit4, IDBS).

Q: With `CCc1ccc2c(c1)[C@]1(C[C@H]1c1ccc3c(-c4cccc(CN5CCOCC5)c4)n[nH]c3c1)C(=O)N2` as the compound, how does the IC50 read?
A: in the range around 2000 nM

Q: For `COCCN1C(=O)[C@@]2(C[C@H]2c2ccc3c(/C=C/c4ccc(CN(C)C)cc4)n[nH]c3c2)c2ccccc21`, which IC50 is on record?
A: in the range around 2000 nM

Q: Which IC50 does the source give for `COc1ccc2c(c1)[C@]1(C[C@H]1c1ccc3c(-c4cccc(N5CCNCC5)c4)n[nH]c3c1)C(=O)N2` (relative stereo) here?
A: in the range around 2000 nM

Q: With `COc1ccc2c(c1)[C@]1(C[C@H]1c1ccc3c(-c4cccc(CN5CCCCC5)c4)n[nH]c3c1)C(=O)N2` (relative stereo) as the compound, how does the IC50 read?
A: in the range around 2000 nM

Q: For `COc1ccc2c(c1)[C@]1(C[C@H]1c1ccc3c(-c4cccc(CN5CCOCC5)c4)n[nH]c3c1)C(=O)N2` (relative stereo), which IC50 is on record?
A: in the range around 2000 nM

Q: With `COc1ccc2c(c1)[C@]1(C[C@H]1c1ccc3c(-c4ccc(CO)cc4)n[nH]c3c1)C(=O)N2` (relative stereo) as the compound, how does the IC50 read?
A: in the range around 2000 nM
